Data: article PMC4728427, “Mechanism of allosteric activation of TMEM16A/ANO1 channels by a commonly used chloride channel blocker” (British Journal of Pharmacology, 2016)
Where two headings read alike, the source gives them in different places.

Target: T1, Mouse TMEM16A (Mus musculus, UniProt Q8BHY3)
T1 construct: expressed in transfected cells; host or cells: HEK-293T
T1 sequence (Q8BHY3 1-960): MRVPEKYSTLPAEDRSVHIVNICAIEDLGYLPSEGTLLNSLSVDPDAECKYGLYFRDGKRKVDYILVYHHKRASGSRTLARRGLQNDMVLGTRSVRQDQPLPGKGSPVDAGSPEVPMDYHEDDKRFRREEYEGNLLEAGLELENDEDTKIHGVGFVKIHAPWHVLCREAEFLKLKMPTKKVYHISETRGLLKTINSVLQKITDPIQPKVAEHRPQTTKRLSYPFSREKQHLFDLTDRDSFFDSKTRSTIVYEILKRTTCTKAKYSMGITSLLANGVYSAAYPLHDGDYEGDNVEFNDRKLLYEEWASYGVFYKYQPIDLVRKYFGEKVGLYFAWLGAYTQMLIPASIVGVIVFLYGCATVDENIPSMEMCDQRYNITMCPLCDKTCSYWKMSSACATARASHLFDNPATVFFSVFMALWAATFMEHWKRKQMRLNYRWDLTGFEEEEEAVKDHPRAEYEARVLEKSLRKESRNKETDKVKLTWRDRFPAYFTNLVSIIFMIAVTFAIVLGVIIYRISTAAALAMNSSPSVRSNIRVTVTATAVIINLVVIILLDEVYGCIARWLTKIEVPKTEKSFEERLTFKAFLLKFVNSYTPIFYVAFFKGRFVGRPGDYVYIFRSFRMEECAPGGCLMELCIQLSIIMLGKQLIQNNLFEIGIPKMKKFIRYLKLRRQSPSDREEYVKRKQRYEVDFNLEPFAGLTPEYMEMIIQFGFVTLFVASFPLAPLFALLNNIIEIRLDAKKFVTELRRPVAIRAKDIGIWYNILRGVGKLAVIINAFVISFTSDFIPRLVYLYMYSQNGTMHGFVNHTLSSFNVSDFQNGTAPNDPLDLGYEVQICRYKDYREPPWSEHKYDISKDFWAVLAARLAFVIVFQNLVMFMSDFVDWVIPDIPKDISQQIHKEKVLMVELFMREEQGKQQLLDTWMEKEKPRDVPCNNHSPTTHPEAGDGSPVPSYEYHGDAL
Test: Time-course of current block analysed by Langmuir formalism (kon, koff), 12.5 μM [Ca2+]i
Format: cell-based
Settings: for Ki: read-out: Ki calculated as koff/kon
Protocol: To investigate the precise mechanism by which extracellular A9C inhibits TMEM16A channels, macroscopic whole‐cell currents were recorded in the presence of 12.5 μM [Ca^2+]i and in response to 250 ms steps to various V m test pulse from a holding V m of −70 mV. The negative holding V m was used to prevent channel block before the test pulse was elicited. […] The time‐course of this decrease was described by a single‐exponential function characterized by a time constant τ B. The extent of the decrease in current was measured for various [A9C]ext and various V m test pulse and then plotted relative to the current measured in the absence of A9C (I 0) (Figure 3B). The γ values were close to 1 at each V m. In contrast, K i decreased as the V m was increased (Figure 3C). […] Thus, A9C appeared to block TMEM16A channels according to a Woodhull mechanism, consistent with a single A9C molecule blocking the channel pore.
The K i at various V m can also be estimated from analysis of the time‐course of current inhibition at various V m (see Supporting Information for details). K i estimated from this analysis were plotted against the V m in Figure 3C (open symbols). It is clear that K i estimated in this way is similar to the K i estimated from the Hill fit of the dose–response curves (filled symbols). […]
SUPPLEMENTARY INFORMATION
TMEM16A currents were measured with the whole-cell or inside-out configuration of
the patch-clamp technique using an Axon 200B amplifier (Molecular Devices, USA)
controlled with GE-pulse software (http://users.ge.ibf.cnr.it/pusch/programs-mik.htm).
Currents were filtered at 2-5 kHz and sampled at 10 kHz, unless stated otherwise.
Pipettes were prepared from borosilicate glass capillary tubes (Harvard Apparatus,
USA) using a Narishige PC-10 pipette puller (Narishige, Japan). Pipette tip diameter
yielded a resistance of 2.2 to 2.8 MΩ in the working solutions. The bath was grounded
through a 3 M KCl agar bridge connected to a Ag-AgCl reference electrode. In whole-
cell recordings, the series resistance was usually compensated by ≥70 % to achieve a
maximal effective series resistance generally lower than ~5 MΩ. To allow for
equilibration of the pipette solution with the cell interior, recordings started 5 min after
establishing the whole-cell configuration (Manoury, Tamuleviciute & Tammaro, 2010).
Experiments were conducted at 20-22 °C. The cell capacitance was assessed by
measuring the area beneath a capacitive transient elicited by a 10 mV step or via the
cell capacity compensation circuit of the amplifier.
Estimation of Ki at various Vm using the Langmuir formalism
Detailed kinetic analysis of TMEM16A channel activity is likely to require complex
models to account for the effects of Ca2+ and voltage on channel gating (Hartzell,
Putzier & Arreola, 2005). However, a simplified two-state kinetic scheme may be
applicable in conditions in which high [Ca2+]i is maintained to maximally activate the
TMEM16A channel. Under these conditions, and assuming that a molecule of A9C
binding into the pore of a TMEM16A channel results in the complete block of Cl- fluxes,
the Langmuir formalism applies:
Where O represents the conductive state and OB(A9C) is the A9C-blocked state. kon and
koff are the association and dissociation constant, respectively and Ki = koff/kon is the
apparent equilibrium dissociation constant.
The scheme (I) refers to the following differential equations: […]
(1 picture or pasted object on this page, not shown here)
Where O and OB(A9C) describe the probability of being open (unliganded) or blocked,
Thus, in the presence of a fixed [A9C]ext, when the Vm is stepped to a defined test-pulse
Where O∞ is the value of O(t) at the steady state and O(0) is the value of O(t) at the
beginning of the test pulse while τB is the time constant.
fitted with supplementary equation 3 and the resulting τB-1 plotted versus [A9C]ext
(Suppl. Fig.2). Supplementary equation 5 was used to fit the τB-1 obtained at a given Vm, […]

koff (Vm 20 mV): 94 ± 5 s⁻¹
Ki (Vm 20 mV): 168 µM
koff (Vm 40 mV): 71 ± 9 s⁻¹
Ki (Vm 40 mV): 104 µM
koff (Vm 60 mV): 49 ± 13 s⁻¹
Ki (Vm 60 mV): 62 µM
koff (Vm 80 mV): 34 ± 9 s⁻¹
Ki (Vm 80 mV): 38 µM
koff (Vm 100 mV): 12 ± 25 s⁻¹
Ki (Vm 100 mV): 12 µM
koff (Vm 120 mV): 21 ± 17 s⁻¹
Ki (Vm 120 mV): 19 µM
Compound: O=C(O)c1c2ccccc2cc2ccccc12 [A9C, Anthracene‐9‐carboxylic acid]
